{
  "source": "paper PMC8058344",
  "about": "“ARIH1 signaling promotes anti-tumor immunity by targeting PD-L1 for proteasomal degradation” (Nature Communications, 2021)",
  "key": {"[1]": {"target": "GSK3α (Homo sapiens, UniProt P49840)", "sequence (P49840 whole entry)": "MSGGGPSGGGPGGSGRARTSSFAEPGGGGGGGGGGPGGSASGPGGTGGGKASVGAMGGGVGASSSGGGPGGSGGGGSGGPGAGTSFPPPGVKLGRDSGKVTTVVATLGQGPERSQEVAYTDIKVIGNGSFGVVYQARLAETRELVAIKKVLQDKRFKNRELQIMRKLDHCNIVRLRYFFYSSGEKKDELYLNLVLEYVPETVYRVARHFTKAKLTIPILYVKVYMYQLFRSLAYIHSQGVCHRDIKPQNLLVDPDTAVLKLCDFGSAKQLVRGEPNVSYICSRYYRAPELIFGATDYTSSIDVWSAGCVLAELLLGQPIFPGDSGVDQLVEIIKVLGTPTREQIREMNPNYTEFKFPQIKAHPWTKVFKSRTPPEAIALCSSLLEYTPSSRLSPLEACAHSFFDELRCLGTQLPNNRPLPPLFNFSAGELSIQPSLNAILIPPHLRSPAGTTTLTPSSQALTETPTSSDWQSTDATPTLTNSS", "assay": "In vitro kinase specificity profiling for GSK3α", "type": "biochemical"}, "[2]": {"target": "T790M/L858R EGFR (Homo sapiens, UniProt P00533, L858R/T790M)", "sequence (P00533 25-1210 T790M/L858R)": "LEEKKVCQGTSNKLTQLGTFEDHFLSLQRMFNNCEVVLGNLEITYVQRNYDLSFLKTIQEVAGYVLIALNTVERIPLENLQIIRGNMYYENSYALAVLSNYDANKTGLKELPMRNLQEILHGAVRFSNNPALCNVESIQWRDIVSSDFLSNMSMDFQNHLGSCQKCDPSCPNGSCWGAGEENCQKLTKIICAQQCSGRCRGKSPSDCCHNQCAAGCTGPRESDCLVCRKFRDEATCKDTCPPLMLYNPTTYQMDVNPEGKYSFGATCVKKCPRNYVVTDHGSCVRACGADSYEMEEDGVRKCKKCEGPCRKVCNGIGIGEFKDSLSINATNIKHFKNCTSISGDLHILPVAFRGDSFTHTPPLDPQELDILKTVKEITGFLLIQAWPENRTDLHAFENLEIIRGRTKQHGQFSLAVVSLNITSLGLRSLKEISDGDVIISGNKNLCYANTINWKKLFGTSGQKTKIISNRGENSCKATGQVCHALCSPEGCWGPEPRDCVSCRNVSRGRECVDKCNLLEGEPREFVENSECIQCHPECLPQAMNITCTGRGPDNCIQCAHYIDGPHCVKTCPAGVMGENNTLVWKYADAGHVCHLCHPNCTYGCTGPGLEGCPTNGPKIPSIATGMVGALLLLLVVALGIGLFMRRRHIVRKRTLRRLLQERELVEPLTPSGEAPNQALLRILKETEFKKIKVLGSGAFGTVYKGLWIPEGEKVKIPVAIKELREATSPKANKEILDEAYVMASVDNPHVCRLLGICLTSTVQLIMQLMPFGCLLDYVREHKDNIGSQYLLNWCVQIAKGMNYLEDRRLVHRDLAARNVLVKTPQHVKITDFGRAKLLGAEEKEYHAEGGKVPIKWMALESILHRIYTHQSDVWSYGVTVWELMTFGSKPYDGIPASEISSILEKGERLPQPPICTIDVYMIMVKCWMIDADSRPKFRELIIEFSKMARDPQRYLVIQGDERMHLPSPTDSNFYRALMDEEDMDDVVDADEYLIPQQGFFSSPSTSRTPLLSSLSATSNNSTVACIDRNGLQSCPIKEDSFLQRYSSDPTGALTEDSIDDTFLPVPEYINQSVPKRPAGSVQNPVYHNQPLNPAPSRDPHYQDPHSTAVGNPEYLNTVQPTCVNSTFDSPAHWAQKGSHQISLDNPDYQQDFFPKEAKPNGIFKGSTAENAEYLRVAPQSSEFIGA", "assay": "In vitro kinase specificity profiling", "type": "biochemical"}, "[3]": {"tested_on": "GSK3α", "assay": "Immunoblots of p-GSK3α in H1975 cells", "type": "cell-based, human", "conditions": "10 μM, 24 h, compared to Gefitinib and AZD9291", "description": "For western blot analysis, cells were collected and washed with PBS, then lysed in radioimmunoprecipitation assay (RIPA) buffer (1% Triton X-100, 100 mM Tris-HCl pH 8.8, 100 mM NaCl, 0.5 mM EDTA). After incubation on ice for 30 min, the lysates were centrifuged at 12,000 × g for 10 min at 4 °C. The supernatant was collected and the protein concentration was measured by bicinchoninic acid reaction. Protein samples were added with 2× loading buffer and heated at 100 °C for 10 min, separated with SDS-polyacrylamide gel electrophoresis (SDS-PAGE), transferred onto polyvinylidene difluoride membranes, and blocked with 5% non-fat milk in Phosphate Buffered Saline with 0.1% Tween-20 (PBST) for 1 h at room temperature. The membranes were probed with the corresponding primary antibodies at 4 °C overnight and horseradish peroxidase-conjugated secondary antibodies at room temperature for 1 h. Signals were detected using chemiluminescence reagents (#4AW001-500, 4A649 Biotech, Co.).\nFlag-EV Flag-PD-L1 Flag-EV Flag-PD-L1\n43 Flag-PD-L1-TM Flag-PD-L1-TM\nGSK3 concenseus phosphorylation motif:S/TXXX S/T EGFR 180 […]\nSupplementary Figure 4. […] Quantification for the mean area (MA) of PD-L1/GSK3α (n = 50) or PD-L1/GSK3β (n = 44-50) PLA speckles are indicated by scattergram. […]"}},
  "data": [
    {"smiles": "C=CC(=O)Nc1cccc(Nc2nc(Nc3ccc(N4CCN(C)CC4)nc3OC)ncc2C(F)(F)F)c1", "note": "[ES-072]", "values": [
      {"measurement": "IC50", "setting": "[1]; as worded in response to reviewers", "value": "> 40", "unit": "µM"},
      {"measurement": "IC50", "setting": "[1]; single independent tests", "value": "> 40", "unit": "µM"},
      {"measurement": "IC50", "setting": "[2]", "value": 0.00175, "unit": "µM"},
      {"measurement": "activation effect on GSK3α (loss of the inhibitory phosphorylation of GSK3α)", "setting": "[3]", "value": "higher activation effect"}
    ]}
  ]
}
